Measurements reported in PubChem BioAssay AID248 (DTP/NCI, 2004).
Values joined by “and” are separate entries in the source; they are usually repeats but may differ in a detail not shown here. Equal values may be shown once. Toxic doses and inconclusive results are not listed. Rule as the data show it: active = T/C of 150% or more; inactive = T/C below 125%.

Tested on: L1210 leukemia ip in BDF1 mice, survival T/C
Test: NCI In Vivo Anticancer Drug Screen. Data for tumor model L1210 Leukemia (intraperitoneal) in B6D2F1 (BDF1) mice
Settings: endpoint: mean survival time, vehicle: water, higher = longer survival
Method in brief: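 Value reflects the ratio of survival in compound-treated mice to survival in vehicle-treated controls, with both groups carrying the same transplanted tumor.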

Measured: T/C

O=C(NO)c1ccncc1
inactive: dose: 6.25 mg/kg/injection, schedule: Q03HX008 (ip) 96 % of control | dose: 12.5 mg/kg/injection, schedule: Q03HX008 (ip) 100 % of control | dose: 18.75 mg/kg/injection, schedule: Q03HX008 (ip) 95 % of control | dose: 25.0 mg/kg/injection, schedule: Q01DX005 (iv) 100 % of control | dose: 33.0 mg/kg/injection, schedule: Q#B X027 (sc) 98 % of control | dose: 50.0 mg/kg/injection, schedule: Q01DX005 (iv) 100 % of control and 105 % of control | dose: 50.0 mg/kg/injection, schedule: Q01DX009 (sc) 98 % of control | dose: 67.0 mg/kg/injection, schedule: Q#B X027 (ip) 98 % of control | dose: 100.0 mg/kg/injection, schedule: Q01DX005 (iv) 101 % of control and 102 % of control and 105 % of control | dose: 100.0 mg/kg/injection, schedule: Q01DX009 (ip) 94 % of control and 100 % of control | dose: 100.0 mg/kg/injection, schedule: Q01DX009 (sc) 93 % of control and 100 % of control | dose: 100.0 mg/kg/injection, schedule: Q01DX010 (ip) 106 % of control | dose: 125.0 mg/kg/injection, schedule: Q01DX001 (ip) 97 % of control | dose: 133.0 mg/kg/injection, schedule: Q#B X027 (ip) 103 % of control | dose: 134.0 mg/kg/injection, schedule: Q#B X027 (sc) 107 % of control | dose: 200.0 mg/kg/injection, schedule: Q01DX001 (ip) 107 % of control | dose: 200.0 mg/kg/injection, schedule: Q01DX005 (ip) 101 % of control | dose: 200.0 mg/kg/injection, schedule: Q01DX005 (iv) 100 % of control and 101 % of control | dose: 200.0 mg/kg/injection, schedule: Q01DX009 (sc) 96 % of control | dose: 200.0 mg/kg/injection, schedule: Q01DX010 (ip) 107 % of control | dose: 200.0 mg/kg/injection, schedule: Q01DX Z (ip) 117 % of control | dose: 200.0 mg/kg/injection, schedule: Q02DX Z (ip) 114 % of control | dose: 200.0 mg/kg/injection, schedule: Q04DX003 (ip) 103 % of control | dose: 200.0 mg/kg/injection, schedule: Q08DX002 (ip) 103 % of control | dose: 200.0 mg/kg/injection, schedule: Q#A X030 (ip) 98 % of control | dose: 200.0 mg/kg/injection, schedule: Q#B X027 (ip) 122 % of control | dose: 200.0 mg/kg/injection, schedule: Q#B X027 (sc) 98 % of control | dose: 220.0 mg/kg/injection, schedule: Q01DX Z (ip) 111 % of control | dose: 222.0 mg/kg/injection, schedule: Q01DX015 (ip) 104 % of control | dose: 222.0 mg/kg/injection, schedule: Q01DX Z (ip) 105 % of control and 106 % of control and 119 % of control | dose: 225.0 mg/kg/injection, schedule: Q01DX Z (ip) 109 % of control | dose: 250.0 mg/kg/injection, schedule: Q01DX001 (ip) 94 % of control and 108 % of control | dose: 250.0 mg/kg/injection, schedule: Q01DX005 (iv) 97 % of control | dose: 250.0 mg/kg/injection, schedule: Q01DX009 (oral) 96 % of control and 98 % of control | dose: 250.0 mg/kg/injection, schedule: Q01DX009 (sc) 93 % of control | dose: 250.0 mg/kg/injection, schedule: Q01DX015 (iv) 106 % of control | dose: 250.0 mg/kg/injection, schedule: Q03HX024 (ip) 100 % of control | dose: 267.0 mg/kg/injection, schedule: Q#B X027 (sc) 97 % of control | dose: 270.0 mg/kg/injection, schedule: Q01DX015 (ip) 121 % of control | dose: 300.0 mg/kg/injection, schedule: Q01DX015 (im) 93 % of control | dose: 300.0 mg/kg/injection, schedule: Q01DX Z (ip) 112 % of control | dose: 300.0 mg/kg/injection, schedule: Q02DX Z (ip) 112 % of control | dose: 300.0 mg/kg/injection, schedule: Q#A X030 (ip) 98 % of control | dose: 333.0 mg/kg/injection, schedule: Q01DX015 (ip) 119 % of control | dose: 333.0 mg/kg/injection, schedule: Q01DX Z (ip) 120 % of control | dose: 335.0 mg/kg/injection, schedule: Q01DX Z (ip) 97 % of control and 116 % of control | dose: 400.0 mg/kg/injection, schedule: Q01DX001 (ip) 100 % of control | dose: 400.0 mg/kg/injection, schedule: Q01DX005 (iv) 103 % of control | dose: 400.0 mg/kg/injection, schedule: Q01DX009 (sc) 100 % of control | dose: 400.0 mg/kg/injection, schedule: Q01DX015 (ip) 111 % of control | dose: 400.0 mg/kg/injection, schedule: Q01DX015 (sc) 104 % of control | dose: 400.0 mg/kg/injection, schedule: Q04DX003 (ip) 114 % of control | dose: 400.0 mg/kg/injection, schedule: Q08DX002 (ip) 105 % of control | dose: 500.0 mg/kg/injection, schedule: Q01DX001 (ip) 111 % of control and 113 % of control | dose: 500.0 mg/kg/injection, schedule: Q01DX005 (iv) 100 % of control | dose: 500.0 mg/kg/injection, schedule: Q01DX009 (oral) 93 % of control and 105 % of control | dose: 500.0 mg/kg/injection, schedule: Q01DX009 (sc) 94 % of control and 100 % of control | dose: 500.0 mg/kg/injection, schedule: Q01DX015 (im) 104 % of control | dose: 500.0 mg/kg/injection, schedule: Q01DX015 (ip) 121 % of control | dose: 500.0 mg/kg/injection, schedule: Q01DX015 (oral) 97 % of control | dose: 500.0 mg/kg/injection, schedule: Q03HX024 (ip) 98 % of control | dose: 600.0 mg/kg/injection, schedule: Q01DX001 (ip) 105 % of control | dose: 600.0 mg/kg/injection, schedule: Q01DX005 (ip) 101 % of control | dose: 600.0 mg/kg/injection, schedule: Q01DX005 (iv) 103 % of control | dose: 600.0 mg/kg/injection, schedule: Q01DX015 (sc) 98 % of control | dose: 600.0 mg/kg/injection, schedule: Q02DX Z (ip) 123 % of control | dose: 600.0 mg/kg/injection, schedule: Q03DX005 (ip) 108 % of control | dose: 600.0 mg/kg/injection, schedule: Q04DX003 (ip) 120 % of control | dose: 600.0 mg/kg/injection, schedule: Q08DX002 (ip) 105 % of control | dose: 750.0 mg/kg/injection, schedule: Q01DX009 (oral) 100 % of control | dose: 750.0 mg/kg/injection, schedule: Q01DX009 (sc) 111 % of control | dose: 750.0 mg/kg/injection, schedule: Q01DX015 (im) 113 % of control | dose: 750.0 mg/kg/injection, schedule: Q01DX015 (ip) 113 % of control | dose: 750.0 mg/kg/injection, schedule: Q03HX024 (ip) 96 % of control | dose: 800.0 mg/kg/injection, schedule: Q01DX005 (ip) 107 % of control | dose: 800.0 mg/kg/injection, schedule: Q01DX Z (ip) 114 % of control | dose: 800.0 mg/kg/injection, schedule: Q03DX005 (ip) 107 % of control | dose: 800.0 mg/kg/injection, schedule: Q08DX002 (ip) 111 % of control | dose: 900.0 mg/kg/injection, schedule: Q01DX001 (ip) 105 % of control | dose: 1000.0 mg/kg/injection, schedule: Q01DX001 (ip) 106 % of control | dose: 1000.0 mg/kg/injection, schedule: Q01DX009 (oral) 102 % of control and 105 % of control | dose: 1000.0 mg/kg/injection, schedule: Q01DX015 (oral) 109 % of control | dose: 1000.0 mg/kg/injection, schedule: Q03HX024 (ip) 95 % of control | dose: 1100.0 mg/kg/injection, schedule: Q03DX005 (ip) 108 % of control | dose: 1500.0 mg/kg/injection, schedule: Q03HX024 (ip) 113 % of control
